Experimental data from patent publication US10449208B2, “Antiviral prodrugs of tenofovir” (Merck Sharp & Dohme Corp., priority 2016, dated 2019).
Read-outs that look alike come from different tables or passages of the source.

Assays:
HIV-1 (H9/IIIB strain) = test: Multiple round HIV-1 infection assay (Viking assay) in MT4-GFP cells; type: cell-based; conditions: Human immunodeficiency virus 1, IIIB, MT4-GFP cells infected with HIV-1 H9/IIIB, inhibition of reproductive ratio R0
Summary of the method: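 MT4-gag-GFP cells infected overnight with HIV-1 H9/IIIB at MOI ~0.01, then incubated with compound (10-point 3-fold dilutions, typically 8.4 μM–0.42 nM) in RPMI with 10% or 50% normal human serum. Green cells counted at ~48 and ~72 h; IC50 from inhibition of reproductive ratio R0, 4-parameter fit.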

[1] = Prodrug stability assay in bio-relevant media (FaSSIF with Pancreatin, simulated gastrointestinal tract conditions); type: in vitro ADME; conditions: % parent prodrug remaining at 5 h vs 0 h, 37° C., 0.5 mg/mL Pancreatin in FaSSIF, HPLC area ratio
Description: Prodrug Stability Assay in Bio-Relevant Media
The following assay was employed to evaluate the stability of the prodrugs in simulated gastrointestinal tract conditions. Preparation of fasted state simulated intestinal fluid (FaSSIF) using Phares SIF Powder was carried out according to protocols from Phare Drug Delivery AG (Baselland, Switzerland). For sample preparation, 10 μL stock solutions (10 mM) of prodrug substance in DMSO was added to 990 μL of 0.5 mg/mL Pancreatin solution (Fisher CAS#8049-47-6) in FaSSIF. Two samples were prepared for each compound at initial. If the sample was clear solution at the beginning, ran one sample directly as initial by HPLC; if the sample was not clear at starting, diluted the sample by 100% ACN. Put the other sample under 37° C. and observed the sample at 5 h time-point. At 5 h time point, if the sample was clear solution then performed HPLC analysis directly; if it was not clear solution, diluted the sample by 100% ACN and assayed by HPLC. All the samples were vortexed for 3 min and observed before injection. For the diluted samples, the area will be multiplied by a factor when data analysis. The analysis was carried out with an Agilent 1100 series HPLC with autosampler. The column was usually a Poroshell 120 EC -C18, 4.6×50 mm, 2.7 μm. The flow rate was 1.8 mL/min, and the injection volume was 5 or 10 μL. UV detection was in the range 210-400 nm. The mobile phase consisted of solvent A (water plus 10 mM tetrabutylammonium bromide) and solvent B (acetonitrile) with a gradient of 90% solvent A at 0 min changing to 95% solvent B over 6 min, maintained for 1.5 min, then reverting to 90% solvent A over 1.6 min. The area of the parent in prodrug at 5h time point was divided by the area of the parent in prodrug at 0 h time point, to generate the % claimed parent ratio, which are summarized in Table 2 for GI Tract stability.

[2] = 10% normal human serum, read-out: Viking, IC50 (10% NHS)
[3] = 50% normal human serum, read-out: Viking, IC50 (50% NHS)

Row | Compound | IC50 (HIV-1 (H9/IIIB strain); [2]) [nM] | IC50 (HIV-1 (H9/IIIB strain); [3]) [nM] | GI Tract stability [1] [%]
1 | CC(C)OC(=O)[C@H](C)OP(=O)(CO[C@H](C)Cn1cnc2c(N)ncnc21)NC1(C(=O)OC(C)C)CC1 (stereo partly drawn) [Example 47, Isopropyl 1-((((((R)-1-(6-amino-9H-purin-9-yl)propan-2-yl)oxy)methyl)(((S)-1-isopropoxy-1-oxopropan-2-yl)oxy)phosphoryl)amino) cyclopropane-1-carboxylate] | 91.6 | 209 | 93.55
2 | CC(C)OC(=O)COP(=O)(CO[C@H](C)Cn1cnc2c(N)ncnc21)NC1(C(=O)OC(C)C)CCC1 (stereo partly drawn) [Example 49, Isopropyl 1-((((((R)-1-(6-amino-9H-purin-9-yl)propan-2-yl)oxy)methyl)(2-isopropoxy-2-oxoethoxy)phosphoryl)amino) cyclobutane-1-carboxylate] | 19.6 | 37 | 100.50
3 | CC(C)OC(=O)COP(=O)(CO[C@H](C)Cn1cnc2c(N)ncnc21)NC1(C(=O)OC(C)C)CCCCC1 (stereo partly drawn) [Example 51, Isopropyl 1-((((((R)-1-(6-amino-9H-purin-9-yl)propan-2-yl)oxy)methyl)(2-isopropoxy-2-oxoethoxy)phosphoryl)amino) cyclohexane-1-carboxylate] | 9.8 | 24.9 | 99.70
